# Reference: patent US20220257698A1, “ANGIOTENSIN TYPE 2 (AT2) RECEPTOR AGONISTS FOR USE IN THE TREATMENT OF CANCER” (LANTHIOPEP B.V., priority 2019, published 2022)
# Assays:
# [1] = test system: head & neck carcinoma PDX model HN10309; experiment: KcAng(1-7) on growth of head & neck carcinoma PDX HN10309 in mice; type: in vivo, NMRI nu/nu mice (human PDX)
# Method: In vivo studies were conducted at EPO GmbH Berlin. Large studies (FIG. 1A, 2, 3, 4, 5) comprised 3 groups of 10 mice/group and 5 animals as reserve, as outlined in Table 1. Smaller studies (FIG. 1B, 1C, 1D) comprised 2 groups of mice of 3 mice per group. The animals were allocated to the various treatment groups (e.g. 0.2 μg/kg and 30 μg/kg) with a maximum of 10 animals per group. […] The groups received subcutaneous (s.c.) drug injection (for max. 28 days) as outlined in the Table 1.
# NMRI nu/nu mice were used in this study. The animals were female at age of 6 to 8 weeks. The respective PDX tumors were inoculated subcutaneously (s.c.), and the tumors were grown to achieve palpable tumor sizes before start of the respective treatments. The PDX included breast (MaCa4151), colon (Co9689A), head & neck (HN10309), lung (Lu7433) and ovarian (OvCa13329) cancer (Table 2).
# Treatment with KcAng(1-7) was started with palpable tumors after the randomization of animals regarding tumor volume. KcAng(1-7) was applied s.c. by daily injections at […] or 30 μg/kg dose for a maximum of 28 days (or earlier as defined by the humane end point for the study).
# KcAng(1-7) was prepared as follows: The compounds was suspended in sterile PBS resulting in a clear solution. The remains of this formulation were stored at 4° C.
# Tumor growth stimulatory or inhibitory activity of the KcAng(1-7) was evaluated by determination of tumor volumes (TV). During the study, tumor volumes and body weight were measured twice a week, and the ratio of the mean tumor volumes between the compound-treated group and the vehicle-treated group (T/C) was calculated.
# Tumor volume=(tumor width)×(tumor width)×(tumor length)+2
# T/C=T÷C • T: Mean estimated tumor volume of the compound-treated group • C: Mean estimated tumor volume of the vehicle-treated group
# U87MG glioblastoma CDX = experiment: Tumor hemoglobin level (indirect angiogenesis) in U87MG CDX; type: in vivo, cd1 nu/nu mice (human GBM cell line); conditions: KcAng(1-7) 1 μg/kg/d, Losartan 20 mg/kg/d, or both
# Method: Efficacy of treatment was evaluated by: […] Mice with U87MG cell CDX were randomized at day 0. KcAng(1-7) was injected subcutaneously (1 μg/kg) on a daily basis. Losartan was administered intraperitoneal at 20 mg/kg/day. […] In brief, tumors were homogenized in double-distilled water. Eighty microliters of homogenates were mixed with 1 mL of Drabkin's solution and incubated for 15 min at room temperature. After centrifugation at 400×g for 5 min, the supernatants were subjected to absorbance measurement at 540 nm. The absorption, which is proportional to hemoglobin concentration, was divided by tumor weight.
# [2] = Gr. B 0.2 μg/kg/d s.c., Day 35 (Meas. 1)
# [3] = Gr. B 0.2 μg/kg/d s.c., Day 38 (Meas. 2)
# [4] = Gr. B 0.2 μg/kg/d s.c., Day 41 (Meas. 3)
# [5] = Gr. B 0.2 μg/kg/d s.c., Day 45 (Meas. 4)
# [6] = Gr. B 0.2 μg/kg/d s.c., Day 49 (Meas. 5)
# [7] = Gr. B 0.2 μg/kg/d s.c., Day 52 (Meas. 6)
# [8] = Gr. B 0.2 μg/kg/d s.c., Day 55 (Meas. 7)
# [9] = Gr. B 0.2 μg/kg/d s.c., Day 58 (Meas. 8)
# [10] = Gr. B 0.2 μg/kg/d s.c., Day 63 (Meas. 9)
# [11] = Gr. C 30 μg/kg/d s.c., Day 35 (Meas. 1)
# [12] = Gr. C 30 μg/kg/d s.c., Day 38 (Meas. 2)
# [13] = Gr. C 30 μg/kg/d s.c., Day 41 (Meas. 3)
# [14] = Gr. C 30 μg/kg/d s.c., Day 45 (Meas. 4)
# [15] = Gr. C 30 μg/kg/d s.c., Day 49 (Meas. 5)
# [16] = Gr. C 30 μg/kg/d s.c., Day 52 (Meas. 6)
# [17] = Gr. C 30 μg/kg/d s.c., Day 55 (Meas. 7)
# [18] = Gr. C 30 μg/kg/d s.c., Day 58 (Meas. 8)
# [19] = Gr. C 30 μg/kg/d s.c., Day 63 (Meas. 9)
substance,measurement,setting,value
Lys-Asp-Arg-Val-Abu/Ala-Ile-His-Abu/Ala (KDRVAIHA; not fully specified; cyclic thioether (Abu/Ala bridge); VARIANT (5)..(5) /replace=“Abu”; VARIANT (8)..(8) /replace=“Abu”; SITE (1)..(8) /note=“Variant residues given in the sequence have no preference with respect to those in the annotations for variant positions”) [KcAng(1-7)],optT/C,"[1]; 30 μg/kg, day 14 of the treatment",71%
same,effect on tumor volume,"[1]; 0.2 and 30 μg/kg, 28 days",did not result in a reduction or increase in tumor volume
same,RTV Mean,[1]; [2],1
same,RTV Median,[1]; [2],1
same,T/C,[1]; [2],100.1%
same,Tumor Vol. Mean,[1]; [2],0.083 cm^3
same,Tumor Vol. Median,[1]; [2],0.064 cm^3
same,RTV Mean,[1]; [3],1.6
same,RTV Median,[1]; [3],1.7
same,T/C,[1]; [3],107.9%
same,Tumor Vol. Mean,[1]; [3],0.128 cm^3
same,Tumor Vol. Median,[1]; [3],0.085 cm^3
same,RTV Mean,[1]; [4],2.1
same,RTV Median,[1]; [4],2.1
same,T/C,[1]; [4],100.6%
same,Tumor Vol. Mean,[1]; [4],0.164 cm^3
same,Tumor Vol. Median,[1]; [4],0.14 cm^3
same,RTV Mean,[1]; [5],2.6
same,RTV Median,[1]; [5],2.5
same,T/C,[1]; [5],116.7%
same,Tumor Vol. Mean,[1]; [5],0.217 cm^3
same,Tumor Vol. Median,[1]; [5],0.158 cm^3
same,RTV Mean,[1]; [6],3.3
same,RTV Median,[1]; [6],3.2
same,T/C,[1]; [6],104.4%
same,Tumor Vol. Mean,[1]; [6],0.275 cm^3
same,Tumor Vol. Median,[1]; [6],0.209 cm^3
same,RTV Mean,[1]; [7],4.4
same,RTV Median,[1]; [7],4
same,T/C,[1]; [7],126.7%
same,Tumor Vol. Mean,[1]; [7],0.367 cm^3
same,Tumor Vol. Median,[1]; [7],0.303 cm^3
same,RTV Mean,[1]; [8],5.4
same,RTV Median,[1]; [8],4.8
same,T/C,[1]; [8],126.5%
same,Tumor Vol. Mean,[1]; [8],0.443 cm^3
same,Tumor Vol. Median,[1]; [8],0.366 cm^3
same,RTV Mean,[1]; [9],5.8
same,RTV Median,[1]; [9],4.9
same,T/C,[1]; [9],115.2%
same,Tumor Vol. Mean,[1]; [9],0.473 cm^3
same,Tumor Vol. Median,[1]; [9],0.437 cm^3
same,RTV Mean,[1]; [10],8.9
same,RTV Median,[1]; [10],7.3
same,T/C,[1]; [10],120.4%
same,Tumor Vol. Mean,[1]; [10],0.677 cm^3
same,Tumor Vol. Median,[1]; [10],0.64 cm^3
same,RTV Mean,[1]; [11],1
same,RTV Median,[1]; [11],1
same,T/C,[1]; [11],99.5%
same,Tumor Vol. Mean,[1]; [11],0.083 cm^3
same,Tumor Vol. Median,[1]; [11],0.077 cm^3
same,RTV Mean,[1]; [12],1.3
same,RTV Median,[1]; [12],1.3
same,T/C,[1]; [12],83.5%
same,Tumor Vol. Mean,[1]; [12],0.099 cm^3
same,Tumor Vol. Median,[1]; [12],0.092 cm^3
same,RTV Mean,[1]; [13],1.6
same,RTV Median,[1]; [13],1.5
same,T/C,[1]; [13],74.6%
same,Tumor Vol. Mean,[1]; [13],0.122 cm^3
same,Tumor Vol. Median,[1]; [13],0.117 cm^3
same,RTV Mean,[1]; [14],1.8
same,RTV Median,[1]; [14],1.7
same,T/C,[1]; [14],75%
same,Tumor Vol. Mean,[1]; [14],0.139 cm^3
same,Tumor Vol. Median,[1]; [14],0.135 cm^3
same,RTV Mean,[1]; [15],2.2
same,RTV Median,[1]; [15],2.2
same,T/C,[1]; [15],71.3%
same,Tumor Vol. Mean,[1]; [15],0.188 cm^3
same,Tumor Vol. Median,[1]; [15],0.187 cm^3
same,RTV Mean,[1]; [16],2.8
same,RTV Median,[1]; [16],2.9
same,T/C,[1]; [16],89.8%
same,Tumor Vol. Mean,[1]; [16],0.26 cm^3
same,Tumor Vol. Median,[1]; [16],0.236 cm^3
same,RTV Mean,[1]; [17],3.5
same,RTV Median,[1]; [17],3.5
same,T/C,[1]; [17],92.1%
same,Tumor Vol. Mean,[1]; [17],0.323 cm^3
same,Tumor Vol. Median,[1]; [17],0.283 cm^3
same,RTV Mean,[1]; [18],3.9
same,RTV Median,[1]; [18],4
same,T/C,[1]; [18],89.3%
same,Tumor Vol. Mean,[1]; [18],0.367 cm^3
same,Tumor Vol. Median,[1]; [18],0.303 cm^3
same,RTV Mean,[1]; [19],5.6
same,RTV Median,[1]; [19],5.8
same,T/C,[1]; [19],96.3%
same,Tumor Vol. Mean,[1]; [19],0.541 cm^3
same,Tumor Vol. Median,[1]; [19],0.505 cm^3
same,"Tumor hemoglobin level, mean (± SEM)",U87MG glioblastoma CDX,8.8 ± 1.0 mg hemoglobin/g of tissue
